Data published in patent US8754079B2, “Cycloalkyl containing thienopyrimidines for pharmaceutical compositions” (Boehringer Ingelheim International GmbH, priority 2010, dated 2014).

Target: T1, MNK2 (Homo sapiens, UniProt Q9HBH9)
T1 construct: the open reading frames of human Mnk1 and Mnk2a were amplified from cDNA; made in house; host or cells: E. coli BL21
Test: Mnk2a in vitro kinase assay (indirect fluorescence polarization)
Assay type: biochemical
Details: pre-activated GST-Mnk2a 2.5 nM, 20 μM ATP, 30 μM substrate peptide
Protocol: Inhibitory potency of compounds against Mnk1, Mnk2a and other kinases was assessed with assays based on a format known to those skilled in the art as the indirect (competitive) fluorescence polarization. The assay detection system comprises a small fluorophore-labeled phospho-peptide (termed ligand) bound to a phospho-specific antibody. The product generated by the kinase reaction competes with the ligand for antibody binding. Based on the larger molecular volume of the bound ligand, which results in a lower rotation rate in solution, its emitted light has a higher degree of polarization than the one from the free ligand.
Example 2a. Mnk1 and Mnk2a in vitro kinase assay
As a source of enzyme, human Mnk1 and human Mnk2a were expressed as GST fusion proteins in E. coli, purified to >80% homogeneity by glutathione affinity chromatography and activated in vitro with pre-activated ERK2. In brief, the open reading frames of human Mnk1 and Mnk2a were amplified from cDNA using the forward/reverse primer pairs
(utilized restriction sites underlined), respectively, and cloned into the BamHI and SalI sites of the vector pGEX-4T1 (Amersham, Sweden, cat. no. 27-4580-01). These constructs allow prokaryotic expression of Mnk1 or Mnk2a as fusion protein with a N-terminal glutathione S-transferase (GST) tag, referred to as GST-Mnk1 or GSTMnk2a. The following expression and purification procedure was identical for GSTMnk1 and GST-Mnk2a, referring in general to GST-Mnk, when not distinguishing between the two isoforms. Expression of GST-Mnk was in E. coli BL21 (Merck Biosciences, Germany, cat. no. 69449). Cells were grown in LB-Bouillon (Merck, Germany, cat. no. 1.10285) supplemented with 100 μg/ml ampicillin (Sigma, Germany, cat. no. A9518) at 37° C. When the culture had reached a density corresponding to an A600 of 0.8, an equal volume of ice cold LB/ampicillin was added, the culture transferred to 25° C. and induced for 4 h with 1 mM isopropyl thiogalactoside (IPTG, Roth, Germany, cat. no. 2316.4). Cells harvested by centrifugation were resuspended in 10 ml lysis buffer (50 mM tris(hydroxymethyl)aminomethane hydrochloride (Tris/HCl, Sigma, Germany, cat. no. T5941) pH 7.5, 300 mM sodium chloride (NaCl, Sigma, Germany, cat. no. S7653), 5% (w/v) glycerol (Sigma, Germany, cat. no. G5516), 3 mM DTT dithiotreitol (DTT, Sigma, Germany, cat. no. D9779)) per gram wet weight cell pellet. Lysates were prepared by disruption of cells with a sonifier and subsequent clearing by centrifugation at 38000 g for 45 min at 4° C.
The lysate was applied to a GSTPrep FF 16/10 column (Amersham, Sweden, cat. no. 17-5234-01) equilibrated with lysis buffer. Removal of unbound material was with 3 column volumes (CV) lysis buffer. Elution was with 2 CV of elution buffer (50 mM Tris/HCl pH 7.5, 300 mM NaCl, 5% (w/v) glycerol, 20 mM glutathione (Sigma, Germany, cat. no. G4251)). Peak fractions were pooled and the protein transferred into storage buffer (50 mM Tris/HCl pH 7.5, 200 mM NaCl, 0.1 mM ethylene glycolbis(2-aminoethylether)-N,N,N′,N′-tetraacetic acid (EGTA, Aldrich, Germany, cat. no. 23, 453-2), 1 mM DTT, 10% (w/v) glycerol, 0.5 M sucrose (Sigma, Germany, cat. no. S0389) by gel filtration on a PD10 desalting column (Amersham, Sweden, cat. no. 17-0851-01). Aliquots were shock frozen in liquid nitrogen and stored at −80° C.
Activation of Mnk1 and Mnk2a was at a concentration of 2.5 μM of either purified GST-Mnk1 or GST-Mnk2a by incubation with 150 nM pre-activated NHis-ERK2 (see ERK2 assay for preparation) and 50 μM adenosine triphosphate (ATP, Sigma, cat. no. A2699) in a buffer comprising 20 mM N-(2-hydroxyethyl)piperazine-N′-(2-ethanesulfonic acid) (HEPES, Fluka, Germany, cat. no 54459)/potassium hydroxide (KOH, Roth, Germany, cat. no 6751.1) pH 7.4, 10 mM magnesium chloride (MgCl2, Sigma, Germany, cat. no. M2670), 0.25 mM DTT, 0.05% (w/v) polyoxyethylene 20 stearylether (Brij 78, Sigma, Germany, cat. no. P4019) (HMDB buffer) for 45 min at 30° C. […]

T1 sequence (Q9HBH9 whole entry): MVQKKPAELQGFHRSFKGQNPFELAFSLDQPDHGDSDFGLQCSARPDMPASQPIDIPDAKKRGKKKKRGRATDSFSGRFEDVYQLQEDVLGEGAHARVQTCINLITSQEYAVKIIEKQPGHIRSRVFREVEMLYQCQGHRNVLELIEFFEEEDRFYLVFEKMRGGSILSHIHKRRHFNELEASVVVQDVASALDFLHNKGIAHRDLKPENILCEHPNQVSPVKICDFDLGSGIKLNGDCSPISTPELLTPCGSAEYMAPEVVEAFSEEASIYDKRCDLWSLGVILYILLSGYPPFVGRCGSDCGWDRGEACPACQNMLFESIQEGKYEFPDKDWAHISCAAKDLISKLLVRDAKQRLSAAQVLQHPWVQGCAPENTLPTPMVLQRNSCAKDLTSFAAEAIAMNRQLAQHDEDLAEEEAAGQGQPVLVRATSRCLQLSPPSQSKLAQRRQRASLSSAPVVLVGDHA

Cc1c(C(N)=O)sc2ncnc(Nc3ccc(F)cc3O[C@@H]3C[C@@H]4OCO[C@@H]4C3)c12 [Example 218]
IC50: 38 nM

CO[C@H]1CC[C@H](Oc2cc(F)ccc2Nc2ncnc3sc(C(=O)NCCN(C)C)c(C)c23)CC1 [Example 193]
IC50: 43 nM

Cc1c(C(=O)NCC#N)sc2ncnc(Nc3ccc(F)cc3O[C@H]3CC[C@H](O)CC3)c12 [Example 163]
IC50: 9 nM

Cc1c(C(N)=O)sc2ncnc(Nc3ccc(F)cc3O[C@H]3CC[C@@H](O)CC3)c12 [Example 150]
IC50: 11 nM

CO[C@@H]1CCCC[C@H]1Oc1cc(F)ccc1Nc1ncnc2sc(C(N)=O)c(C)c12 (racemic) [Example 50, Racemic 4-[4-Fluoro-2-(trans-2-methoxy-cyclohexyloxy)-phenylamino]-5-methyl-thieno[2,3-d]pyrimidine-6-carboxylic acid amide]
IC50: 10 nM

CNC(=O)c1sc2ncnc(Nc3cccnc3O[C@H]3CC[C@H](OC)CC3)c2c1C [Example 208]
IC50: 14 nM

Cc1c(C(=O)NCCCCO)sc2ncnc(Nc3ccc(F)cc3O[C@H]3CC[C@H](O)CC3)c12 [Example 161]
IC50: 17 nM

CC(=O)N[C@H]1C[C@H](Oc2cc(F)ccc2Nc2ncnc3sc(C(=O)NCCCN(C)C)c(C)c23)C1 [Example 36]
IC50: 66 nM

Cc1c(C(=O)NCc2cn(C)cn2)sc2ncnc(Nc3ccc(F)cc3O[C@@H]3CCC[C@@H](O)C3)c12 (racemic) [Example 76]
IC50: 13 nM

CO[C@H]1CC[C@H](Oc2cc(F)ccc2Nc2ncnc3sc(C(=O)N[C@H]4CC[C@H](O)CC4)c(C)c23)CC1 [Example 183]
IC50: 23 nM

Cc1c(C(=O)NCCCN2CCCC2)sc2ncnc(Nc3ccc(F)cc3O[C@H]3C[C@@H]4OCO[C@@H]4C3)c12 [Example 291, 4-[4-Fluoro-2-(tetrahydro-cyclopenta[1,3]dioxol-5-yloxy)phenylamino]-5-methyl-thieno[2,3-d]pyrimidine-6-carboxylic acid (3-pyrrolidin-1-yl-propyl)-amide]
IC50: 19 nM

CC(=O)N[C@H]1CC[C@H](Oc2cc(F)ccc2Nc2ncnc3sc(C(=O)NCCCN4CCCC4)c(C)c23)C1 [Example 239]
IC50: 15 nM

Cc1c(C(=O)NCC#N)sc2ncnc(Nc3ccc(F)cc3O[C@@H]3CCC[C@@H](O)C3)c12 (racemic) [Example 63]
IC50: 14 nM

Cc1c(C(N)=O)sc2ncnc(Nc3ccc(F)cc3O[C@H]3CC[C@@H](N4CCOCC4)CC3)c12 [Example 27, 4-(4-Fluoro-2-(cis-4-morpholinocyclohexyloxy)phenylamino)-5-methylthieno[2,3-d]pyrimidine-6-carboxamide]
IC50: 9700 nM

CC(=O)N[C@H]1CC[C@H](Oc2cc(F)ccc2Nc2ncnc3sc(C(N)=O)c(C)c23)CC1 [Example 5, 4-(2-(trans-4-acetamidocyclohexyloxy)-4-fluorophenylamino)-5-methylthieno[2,3-d]pyrimidine-6-carboxamide]
IC50: 3 nM

CO[C@H]1CC[C@H](Oc2cc(F)ccc2Nc2ncnc3sc(C(=O)NCC#CCN)c(C)c23)CC1 [Example 178]
IC50: 16 nM

CO[C@H]1CC[C@H](Oc2cc(F)ccc2Nc2ncnc3sc(C(=O)NCC(O)CN(C)C)c(C)c23)CC1 (stereo partly drawn) [Example 277]
IC50: 13 nM

Cc1c(C(=O)NCC#CCN(C)C)sc2ncnc(Nc3cccnc3O[C@H]3CC[C@H](O)CC3)c12 [Example 267]
IC50: 10 nM

CO[C@H]1CC[C@H](Oc2cc(F)ccc2Nc2ncnc3sc(C(=O)NCC#CCN(C)C)c(C)c23)CC1 [Example 187]
IC50: 21 nM

Cc1c(C(=O)NCCO)sc2ncnc(Nc3ccc(F)cc3OC3CCC(O)C3)c12 (stereo not drawn) [Example 227, 4-(4-Fluoro-2-(3-hydroxycyclopentyloxy)phenylamino)-N-(2-hydroxyethyl)-5-methylthieno[2,3-d]pyrimidine-6-carboxamide]
IC50: 12 nM

CO[C@H]1CCC[C@@H](Oc2cc(F)ccc2Nc2ncnc3sc(C(=O)NCCCCO)c(C)c23)C1 (racemic) [Example 92]
IC50: 36 nM

Cc1c(C(N)=O)sc2ncnc(Nc3ccc(F)cc3O[C@H]3CC[C@H](N(C)S(C)(=O)=O)CC3)c12 [Example 4, 4-(4-Fluoro-2-(trans-4-(N-methylmethylsulfonamido)cyclohexyloxy)phenylamino)-5-methylthieno[2,3-d]pyrimidine-6-carboxamide]
IC50: 23 nM

Cc1c(C(N)=O)sc2ncnc(Nc3cccnc3O[C@H]3CC[C@H](O)CC3)c12 [Example 204, 4-[2-(trans-4-Hydroxy-cyclohexyloxy)-pyridin-3-ylamino]-5-methyl-thieno[2,3-d]pyrimidine-6-carboxylic acid amide]
IC50: 5 nM

CO[C@H]1CC[C@H](Oc2cc(F)ccc2Nc2ncnc3sc(C(=O)NCCCN4C(=O)CCC4=O)c(C)c23)CC1 [Example 280]
IC50: 9 nM

CC(=O)N(C)[C@H]1CC[C@H](Oc2cc(F)ccc2Nc2ncnc3sc(C(N)=O)c(C)c23)CC1 [Example 7]
IC50: 7 nM

Cc1c(C(=O)O)sc2ncnc(Nc3cccnc3O[C@H]3CC[C@H](N)CC3)c12 [Example 282, 4-[2-(4-Amino-cyclohexyloxy)-pyridin-3-ylamino]-5-methyl-thieno[2,3-d]pyrimidine-6-carboxylic acid]
IC50: 11 nM

CO[C@H]1CC[C@H](Oc2cc(F)ccc2Nc2ncnc3sc(C(N)=O)c(C)c23)CC1 [Example 175, 4-[4-Fluoro-2-(trans-4-methoxy-cyclohexyloxy)-phenylamino]-5-methyl-thieno[2,3-d]pyrimidine-6-carboxylic acid amide]
IC50: 9 nM

CO[C@H]1CCC[C@@H](Oc2ncccc2Nc2ncnc3sc(C(=O)NCC(C)O)c(C)c23)C1 (relative stereo) [Example 125]
IC50: 44 nM

COC1CCCC(Oc2ncccc2Nc2ncnc3sc(C(=O)NCC#CCN(C)C)c(C)c23)C1 (stereo not drawn) [Example 117]
IC50: 12 nM

CO[C@H]1CCC[C@@H](Oc2ncccc2Nc2ncnc3sc(C(=O)NCc4cnco4)c(C)c23)C1 (racemic) [Example 114]
IC50: 19 nM

Cc1c(C(N)=O)sc2ncnc(Nc3ccc(F)cc3O[C@@H]3CCC[C@@H](O)C3)c12 (racemic) [Example 58, Racemic 4-[4-Fluoro-2-((trans)-3-hydroxy-cyclohexyloxy)-phenylamino]-5-methyl-thieno[2,3-d]pyrimidine-6-carboxylic acid amide]
IC50: 6 nM

Cc1c(C(=O)NCCCN(C)C)sc2ncnc(Nc3ccc(F)cc3O[C@H]3CC[C@H](O)CC3)c12 [Example 152, 4-[4-Fluoro-2-(trans-4-hydroxy-cyclohexyloxy)-phenylamino]-5-methyl-thieno[2,3-d]pyrimidine-6-carboxylic acid (3-dimethylamino-propyl)-amide]
IC50: 11 nM

CO[C@@H]1CCCC[C@H]1Oc1cc(F)ccc1Nc1ncnc2sc(C(=O)NCCCN3CCCC3)c(C)c12 [Example 254]
IC50: 11 nM

Cc1c(C(=O)NCCO)sc2ncnc(Nc3cccnc3O[C@H]3CC[C@H](N)CC3)c12 [Example 288]
IC50: 19 nM

Cc1c(C(=O)N[C@H]2CC[C@H](O)CC2)sc2ncnc(Nc3ccc(F)cc3O[C@H]3CC[C@H](O)CC3)c12 [Example 168]
IC50: 20 nM

CO[C@H]1CCC[C@@H](Oc2ncccc2Nc2ncnc3sc(C(=O)NCCCCO)c(C)c23)C1 (racemic) [Example 113]
IC50: 23 nM
